Measurements taken from article PMC10584170, “Machine learning-based phenotypic imaging to characterise the targetable biology of Plasmodium falciparum male gametocytes for the development of transmission-blocking antimalarials” (PLOS Pathogens, 2023).

Assays:
[1] = test system: P. falciparum female gametocytes; experiment: P. falciparum Dual Gamete Formation Assay (PfDGFA), female readout (Pfs25-positive female gametes); type: cell-based, Plasmodium falciparum NF54; conditions: for Average inhibition female (%): average of replicates; for % inhibition female (individual replicates) R1: replicate R1; for % inhibition female (individual replicates) R3: replicate R3; for % inhibition female (individual replicates) R4: replicate R4
How it was run: (§1)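 Mature NF54 gametocytes (day 14) were incubated with compound for 24 h at 37°C under 1% O2/3% CO2, then triggered with xanthurenic acid ookinete medium plus Cy3-anti-Pfs25. Exflagellation was imaged by brightfield; after a further 24 h at 28°C, Pfs25-positive female gametes were imaged by fluorescence and counted by automated image analysis.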

[2] = test system: P. falciparum male gametocytes; experiment: P. falciparum Dual Gamete Formation Assay (PfDGFA), male readout (exflagellation); type: cell-based, Plasmodium falciparum NF54; conditions: for Average inhibition male (%): average of replicates; for % inhibition male (individual replicates) R1: replicate R1; for % inhibition male (individual replicates) R3: replicate R3; for % inhibition male (individual replicates) R4: replicate R4; for Activity: hit = >50% inhibition in male or female readout in at least 3 replicates, 0 = no class assigned
How it was run: as §1

[3] = 2µM, 24h preincubation with gametocytes prior to induction of gametogenesis
[4] = 2µM, 24h preincubation, number of replicates with >50% inhibition in the female readout
[5] = 2µM, 24h preincubation, number of replicates with >50% inhibition in the male readout
[6] = 2µM, 24h preincubation, hits selected on >50% inhibition in the female readout across replicates
[7] = 2µM, 24h preincubation, hits selected on >50% inhibition in the male readout across replicates
[8] = PfDGFA at 2µM, 24h preincubation
[9] = PfDGFA at 2µM, 24h preincubation with gametocytes prior to induction of gametogenesis
[10] = 2µM, 24h preincubation with gametocytes

Structure (SMILES)	Average inhibition female (%) [1, 3] [%]	% inhibition female (individual replicates) R1 [1, 3] [%]	% inhibition female (individual replicates) R3 [1, 3] [%]	% inhibition female (individual replicates) R4 [1, 3] [%]	Average inhibition male (%) [2, 3] [%]	% inhibition male (individual replicates) R1 [2, 3] [%]	% inhibition male (individual replicates) R3 [2, 3] [%]	% inhibition male (individual replicates) R4 [2, 3] [%]	% inhibition female (individual replicates) R1 [1, 9] [%]	% inhibition female (individual replicates) R3 [1, 9] [%]	% inhibition female (individual replicates) R4 [1, 9] [%]	Average inhibition female (%) [1, 8] [%]	% inhibition male (individual replicates) R1 [2, 9] [%]	% inhibition male (individual replicates) R3 [2, 9] [%]	% inhibition male (individual replicates) R4 [2, 9] [%]	Average inhibition male (%) [2, 8] [%]	other results
C/C=C/COc1ccc2ccccc2c1CNCCCCCCCCNCc1c(OC/C=C/C)ccc2ccccc12.CS(=O)(=O)O.O [TCMDC-137844]	23.4	25.6	6.4	40.3	25.4	38.1	0.24	61.8									HitlevelF [1, 4]: 0; HitlevelM [2, 5]: 1
CC(C)c1cc2c(ccc3nc(N)nc(N)c32)[nH]1 [TCMDC-137847]	11.1	19.6	6.0	11.3	0.8	37.4	-19.2	-31.8									HitlevelF [1, 6]: 0; HitlevelM [2, 7]: 0; Activity [2, 8]: 0
CCc1cc2c3c(N)nc(N)nc3ccc2n1CC [TCMDC-137851]	9.4	20.5	-5.1	10.4	-13.9	35.0	-28.2	-58.5									HitlevelF [1, 6]: 0; HitlevelM [2, 7]: 0; Activity [2, 8]: 0
Cl.Nc1nc(N)c2c(ccc3c2cnn3S(=O)(=O)N2CCCC2)n1 [TCMDC-137852]									0.4	-21.8	-7.9	-7.0	28.2	-12.1	-13.1	5.0	
Cl.Nc1nc(N)c2c(ccc3nn(S(=O)(=O)N4CCCC4)cc32)n1 [TCMDC-137854]									-6.1	12.6	-10.2	-1.3	39.1	32.8	30.1	33.2	
CCCn1cc2c(ccc3nc(N)nc(N)c32)n1 [TCMDC-137858]									9.1	-22.2	2.7	-1.2	0.8	-0.8	-25.8	1.4	
CC(C)n1cc2c(ccc3nc(N)nc(N)c32)n1 [TCMDC-137865]									4.2	-9.2	-1.6	-0.07	12.4	-22.8	-29.8	-10.2	
Nc1nc(N)c2c(Cl)c(N3CCOCC3)ccc2n1 [TCMDC-137868]	8.8	9.4	-3.6	-2.4	-14.2	5.7	-9.7	-52.5									HitlevelF [1, 6]: 0; HitlevelM [2, 7]: 0; Activity [2, 8]: 0
Cl.Nc1nc(N)c2c(ccc3c2ccn3C2CCCCC2)n1 [TCMDC-137871]	10.6	-11.4	35.4	4.9	11.6	19.6	1.6	-3.1									HitlevelF [1, 6]: 0; HitlevelM [2, 7]: 0; Activity [2, 8]: 0
Cc1ccc2c(Cc3cnc(N)nc3N)cc(C)c(N)c2n1.Cl [TCMDC-137878]									1.9	4.6	2.9	-0.2	10.8		0.8	15.3	
Cl.N=C(N)NN=Cc1c2ccc(Cl)cc2c(Cl)c2ccc(Cl)cc12 [TCMDC-137884]																	Average inhibition female (%) [1, 10]: 57.1%; % inhibition female (individual replicates) R1 [1, 10]: 33.5%; % inhibition female (individual replicates) R3 [1, 10]: 56.7%; % inhibition female (individual replicates) R4 [1, 10]: 75.9%; Average inhibition male (%) [2, 10]: 92.6%; % inhibition male (individual replicates) R1 [2, 10]: 97.0%; % inhibition male (individual replicates) R3 [2, 10]: 80.2%; % inhibition male (individual replicates) R4 [2, 10]: 97.6%
O=C(NCc1ccccc1[S+]([O-])c1ccccc1CO)C(F)(F)F (centres unmarked) [TCMDC-137886]									9.6	-29.2	19.1	3.3	18.6	-28.2	-31.1	-8.4	
Cl.Nc1ncc(Cc2cc(Cl)c(N)c3ncccc23)c(N)n1 [TCMDC-137889]									12.6	-23.8	5.5	-0.8	6.1	-28.8	-13.1	-7.9	
Cl.c1ccc2c(NCCCCCCCNc3ccnc4ccccc34)ccnc2c1 [TCMDC-137897]	26.1	24.7	-5.3	43.2	23.4	24.9	-14.5	54.2									HitlevelF [1, 4]: 0; HitlevelM [2, 5]: 1
Cl.c1ccc2c(c1)cc(CNCCCN1CCN(CCCNCc3cc4ccccc4c4ccccc34)CC1)c1ccccc12 [TCMDC-137914]	20.8	24.6	15.0	14.7	5.2	10.5	-10.9	23.6									HitlevelF [1, 4]: 0; HitlevelM [2, 5]: 0
